# Results published in patent publication US4031244A, “Pharmaceutical compositions containing a 1-(2,6-dimethyl-phenoxy)-2-amino-alkane and method of use” (priority 1966, dated 1977).
# Experiments:
# mouse = test: Anticonvulsive activity by the electroshock method of Tooman et al; format: in vivo; settings: Mus musculus, read-out: Anticonvulsive ED50
# Description: (§1) The anticonvulsive activity of the compounds of the formula I and their non-toxic acid addition salts, as well as of certain isomers and homologs described in the prior art, was as certained by the electroshock method of Tooman et al, J. Neurophysiol.
# [1] = system: warmblooded animals, such as rats and mice; test: Pharmacodynamic properties (anticonvulsive, antiarrhythmic, sedative side effects) in warm-blooded animals; format: in vivo; settings: specific compounds
# [2] = Anticonvulsive activity by the electroshock method of Tooman et al; format: in vivo, mouse; settings: in vivo; mouse; LD50 / ED50; read-out: Therapeutic ratio LD50 ED50
# Description: as §1
# in vivo = settings: po, mouse
# Description: as §1
Structure (SMILES),ED50 (mouse) [mg/kg],effectiveness as anticonvulsives [1],selectivity ratio [2],LD50 (in vivo) [mg/kg]
"Cc1cccc(C)c1OCC(C)N (stereo not shown) [A, 1-(2',6'-dimethyl-phenoxy)-2-amino-propane]",23,especially effective,,
"CNCCOc1c(C)cccc1C [B, n-methyl-2-(2',6'-xylyloxy)-ethylamine]",80,,2.7,216
"CCCC(N)COc1c(C)cccc1C (stereo not shown) [1-(2',6'-dimethyl-phenoxy)-2-amino-pentane]",,especially effective,,
"Cc1cccc(C)c1OCC(C)N.Cl (stereo not shown) [Example 1, 1-(2',6'-dimethyl-phenoxy)-2-amino-propane hydrochloride]",,especially effective,,
"Cc1cccc(C)c1OCCN [C, 2-(2',6'-xylyloxy)-ethylamine]",115,,6.4,740
"Cc1cccc(C)c1OCCCN [D, 3-(2',6'-xylyloxy)-propylamine]",216,,2.7,580
